Laboratory results published in patent publication US20100137313A1 (ASTRAZENECA AB, priority 2008, published 2010).

Biological target: S. pneumoniae Topoisomerase IV ATPase (ParE) (Streptococcus pneumoniae serotype 4, UniProt Q59961)
Experiment: S. pneumoniae Topoisomerase IV ATPase inhibition
Assay type: biochemical
Settings: values marked * are an average of two or more data points, read-out: % Inh (13 μM) of S. pneumoniae Topoisomerase IV ATPase
Outline: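 Phosphate-release ATPase assay: 1.25 nM ParE, 160 μM ATP, DNA-stimulated. Quench with malachite green/molybdate in 1 M HCl, read 650 nm; IC50 from 10-point dose series.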

S. pneumoniae Topoisomerase IV ATPase (ParE), sequence (Q59961 whole entry): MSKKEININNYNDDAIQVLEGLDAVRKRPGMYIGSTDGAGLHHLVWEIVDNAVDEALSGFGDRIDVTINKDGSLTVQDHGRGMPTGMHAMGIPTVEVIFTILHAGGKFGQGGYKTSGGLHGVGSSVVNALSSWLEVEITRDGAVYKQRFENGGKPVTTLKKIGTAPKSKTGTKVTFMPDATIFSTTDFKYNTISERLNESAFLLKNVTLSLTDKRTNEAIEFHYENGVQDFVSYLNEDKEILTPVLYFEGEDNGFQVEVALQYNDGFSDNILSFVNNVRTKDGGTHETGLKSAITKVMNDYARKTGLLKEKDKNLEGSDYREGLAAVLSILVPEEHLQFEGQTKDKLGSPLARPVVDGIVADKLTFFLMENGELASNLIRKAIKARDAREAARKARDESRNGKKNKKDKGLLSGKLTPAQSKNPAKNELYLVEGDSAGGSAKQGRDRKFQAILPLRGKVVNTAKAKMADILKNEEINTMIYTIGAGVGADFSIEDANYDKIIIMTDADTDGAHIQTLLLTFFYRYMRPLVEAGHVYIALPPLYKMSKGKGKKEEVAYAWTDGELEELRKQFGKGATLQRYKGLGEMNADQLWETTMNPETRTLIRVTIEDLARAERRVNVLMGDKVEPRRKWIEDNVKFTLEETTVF

Row | Compound | inhibition at 13 µM [%]
1 | CN(C)CCn1cc(C(=O)O)c(=O)c2cc(-c3cnc(Nc4ccc(F)c(Cl)c4)nc3-n3ccc(C(F)(F)F)n3)ccc21 [Example 1070, 6-(2-(3-Chloro-4-fluorophenylamino)-4-(3-(trifluoromethyl)-1H-pyrazol-1-yl)pyrimidin-5-yl)-1-(2-(dimethylamino)ethyl)-4-oxo-1,4-dihydroquinoline-3-carboxylic acid] | 93
2 | CN1CCN(CCn2cc(C(=O)O)c(=O)c3cc(-c4cnc(Nc5ccc(F)c(Cl)c5)nc4-n4ccc(C(F)(F)F)n4)ccc32)CC1 [Example 1071, 6-(2-(3-Chloro-4-fluorophenylamino)-4-(3-(trifluoromethyl)-1H-pyrazol-1-yl)pyrimidin-5-yl)-1-(2-(4-methylpiperazin-1-yl)ethyl)-4-oxo-1,4-dihydroquinoline-3-carboxylic acid] | 100
3 | O=C(O)C(=O)Nc1cccc(-c2cnc(Nc3ccc(F)c(Cl)c3)nc2-n2ccc(C(F)(F)F)n2)c1 [Example 1072, 2-(3-(2-(3-Chloro-4-fluorophenylamino)-4-(3-(trifluoromethyl)-1H-pyrazol-1-yl)pyrimidin-5-yl)phenylamino)-2-oxoacetic acid] | 95
4 | Nc1ncc(-c2cnc(Nc3ccc(F)c(Cl)c3)nc2-n2ccc(C(F)(F)F)n2)cc1C(=O)O [Example 1073, 2-Amino-5-(2-(3-chloro-4-fluorophenylamino)-4-(3-(trifluoromethyl)-1H-pyrazol-1-yl)pyrimidin-5-yl)nicotinic acid] | 99
5 | COc1ccc(-c2cnc(Nc3ccc(F)c(Cl)c3)nc2-n2ccc(C(F)(F)F)n2)cc1C(=O)O [Example 1074, 5-(2-(3-Chloro-4-fluorophenylamino)-4-(3-(trifluoromethyl)-1H-pyrazol-1-yl)pyrimidin-5-yl)-2-methoxybenzoic acid] | 100
6 | O=C(O)c1cc(-c2cnc(Nc3ccc(F)c(Cl)c3)nc2-n2ccc(C(F)(F)F)n2)cn(CCN2CCOCC2)c1=O [Example 1075, 5-(2-(3-Chloro-4-fluorophenylamino)-4-(3-(trifluoromethyl)-1H-pyrazol-1-yl)pyrimidin-5-yl)-1-(2-morpholinoethyl)-2-oxo-1,2-dihydropyridine-3-carboxylic acid] | 97
7 | Cc1cc(C(F)(F)F)nn1-c1nc(Nc2ccc(F)c(Cl)c2)ncc1-c1cc(C(=O)O)c(=O)n(CCN2CCOCC2)c1 [Example 1076, 5-(2-(3-Chloro-4-fluorophenylamino)-4-(5-methyl-3-(trifluoromethyl)-1H-pyrazol-1-yl)pyrimidin-5-yl)-1-(2-morpholinoethyl)-2-oxo-1,2-dihydrpyridine-3-carboxylic acid] | 99
8 | O=C(O)c1cc(-c2cnc(Nc3ccc(F)c(Cl)c3)nc2-n2ccc(C(F)(F)F)n2)cnc1NCCN1CCOCC1 [Example 1077, 5-(2-(3-Chloro-4-fluorophenylamino)-4-(3-(trifluoromthyl)-1H-pyrazol-1-yl)pyrimidin-5-yl)-2-(2-morpholinoethylamino)nicotinic acid] | 99
9 | Cc1cc(C(F)(F)F)nn1-c1nc(Nc2ccc(F)c(Cl)c2)ncc1-c1cnc(NCCN2CCOCC2)c(C(=O)O)c1 [Example 1078, 5-(2-(3-Chloro-4-fluorophenylamino)-4-(5-methyl-3-(trifluoromethyl)-1H-pyrazol-1-yl)pyrimidin-5-yl)-2-(2-morpholinoethylamino)nicotinic acid] | 100
10 | COCCNc1ncc(-c2cnc(Nc3ccc(F)c(Cl)c3)nc2-n2ccc(C(F)(F)F)n2)cc1C(=O)O [Example 1079, 5-(2-(3-Chloro-4-fluorophenylamino)-4-(3-(trifluoromethyl)-1H-pyrazol-1-yl)pyrimidin-5-yl)-2-(2-methoxyethylamino)nicotinic acid] | 100
11 | COCCNc1ncc(-c2cnc(Nc3ccc(F)c(Cl)c3)nc2-n2nc(C(F)(F)F)cc2C)cc1C(=O)O [Example 1080, 5-(2-(3-Chloro-4-fluorophenylamino)-4-(5-methyl-3-(trifluoromethyl)-1H-pyrazol-1-yl)pyrimidin-5-yl)-2-(2-methoxyethylamino)nicotinic acid] | 100
12 | COCCn1cc(-c2cnc(Nc3ccc(F)c(Cl)c3)nc2-n2ccc(C(F)(F)F)n2)cc(C(=O)O)c1=O [Example 1081, 5-(2-(3-Chloro-4-fluorophenylamino)-4-(3-(trifluoromethyl)-1H-pyrazol-1-yl)pyrimidin-5-yl)-1-(2-methoxyethyl)-2-oxo-1,2-dihydropyridine-3-carboxylic acid] | 100
13 | COCCn1cc(-c2cnc(Nc3ccc(F)c(Cl)c3)nc2-n2nc(C(F)(F)F)cc2C)cc(C(=O)O)c1=O [Example 1082, 5-(2-(3-Chloro-4-fluorophenylamino)-4-(5-methyl-3-(trifluoromethyl)-1H-pyrazol-1-yl)pyrimidin-5-yl)-1-(2-methoxyethyl)-2-oxo-1,2-dihydropyridine-3-carboxylic acid] | 100
14 | O=C(O)c1cc(-c2cnc(Nc3ccc(F)c(Cl)c3)nc2-n2ccc(C(F)(F)F)n2)cn(CCO)c1=O [Example 1083, 5-(2-(3-Chloro-4-fluorophenylamino)-4-(3-(trifluoromethyl)-1H-pyrazol-1-yl)pyrimidin-5-yl)-1-(2-hydroxyethyl)-2-oxo-1,2-dihydropyridine-3-carboxylic acid] | 99
15 | Cc1cc(C(F)(F)F)nn1-c1nc(Nc2ccc(F)c(Cl)c2)ncc1-c1cc(C(=O)O)c(=O)n(CCO)c1 [Example 1084, 5-(2-(3-Chloro-4-fluorophenylamino)-4-(5-methyl-3-(trifluoromethyl)-1H-pyrazol-1-yl)pyrimidin-5-yl)-1-(2-hydroxyethyl)-2-oxo-1,2-dihydropyridine-3-carboxylic acid] | 100
16 | CCn1cc(-c2cnc(Nc3ccc(F)c(Cl)c3)nc2-n2ccc(C(F)(F)F)n2)cc(C(=O)O)c1=O [Example 1085, 5-(2-(3-Chloro-4-fluorophenylamino)-4-(3-(trifluoromethyl)-1H-pyrazol-1-yl)pyrimidin-5-yl)-1-ethyl-2-oxo-1,2-dihydropyridine-3-carboxylic acid] | 100
17 | CCn1cc(-c2cnc(Nc3ccc(F)c(Cl)c3)nc2-n2nc(C(F)(F)F)cc2C)cc(C(=O)O)c1=O [Example 1086, 5-(2-(3-Chloro-4-fluorophenylamino)-4-(5-methyl-3-(trifluoromethyl)-1H-pyrazol-1-yl)pyrimidin-5-yl)-1-ethyl-2-oxo-1,2-dihydropyridine-3-carboxylic acid] | 92
18 | Cn1cc(-c2cnc(Nc3ccc(F)c(Cl)c3)nc2-n2ccc(C(F)(F)F)n2)cc(C(=O)O)c1=O [Example 1087, 5-(2-(3-Chloro-4-fluorophenylamino)-4-(3-(trifluoromethyl)-1H-pyrazol-1-yl)pyrimidin-5-yl)-1-methyl-2-oxo-1,2-dihydropyridine-3-carboxylic acid] | 100
19 | Cc1cc(C(F)(F)F)nn1-c1nc(Nc2ccc(F)c(Cl)c2)ncc1-c1cc(C(=O)O)c(=O)n(C)c1 [Example 1088, 5-(2-(3-chloro-4-fluorophenylamino)-4-(5-methyl-3-(trifluoromethyl)-1H-pyrazol-1-yl)pyrimidin-5-yl)-1-methyl-2-oxo-1,2-dihydrpyridine-3-carboxylic acid] | 100
20 | CC(C)N1CCN(CCn2cc(-c3cnc(Nc4ccc(F)c(Cl)c4)nc3-n3ccc(C(F)(F)F)n3)cc(C(=O)O)c2=O)CC1 [Example 1089, 5-(2-(3-chloro-4-fluorophenylamino)-4-(3-(trifluoromethyl)-1H-pyrazol-1-yl)pyrimidin-5-yl)-1-(2-(4-isopropylpiperazin-1-yl)ethyl)-2-oxo-1,2-dihydropyridine-3-carboxylic acid] | 100
21 | Cc1cc(C(F)(F)F)nn1-c1nc(Nc2ccc(F)c(Cl)c2)ncc1-c1cc(C(=O)O)c(=O)n(CCN2CCN(C(C)C)CC2)c1 [Example 1090, 5-(2-(3-chloro-4-fluorophenylamino)-4-(5-methyl-3-(trifluoromethyl)-1H-pyrazol-1-yl)pyrimidin-5-yl)-1-(2-(4-isopropylpiperazin-1-yl)ethyl)-2-oxo-1,2-dihydropyridine-3-carboxylic acid] | 100
22 | CS(=O)(=O)CCn1cc(-c2cnc(Nc3ccc(F)c(Cl)c3)nc2-n2ccc(C(F)(F)F)n2)cc(C(=O)O)c1=O [Example 1091, 5-(2-(3-Chloro-4-fluorophenylamino)-4-(3-(trifluoromethyl)-1H-pyrazol-1-yl)pyrimidin-5-yl)-1-(2-(methylsulfonyl)ethyl)-2-oxo-1,2-dihydropyridine-3-carboxylic acid] | 100
23 | O=C(O)c1cc(-c2cnc(Nc3ccc(F)c(Cl)c3)nc2-n2ccc(C(F)(F)F)n2)c[nH]c1=O [Example 1092, 5-(2-(3-Chloro-4-fluorophenylamino)-4-(3-(trifluoromethyl)-1H-pyrazol-1-yl)pyrimidin-5-yl)-2-oxo-1,2-dihydropyridine-3-carboxylic acid] | 100
24 | Cc1cc(C(F)(F)F)nn1-c1nc(Nc2ccc(F)c(Cl)c2)ncc1-c1cc(C(=O)O)c(=O)n(CCS(C)(=O)=O)c1 [Example 1093, 5-(2-(3-Chloro-4-fluorophenylamino)-4-(5-methyl-3-(trifluoromethyl)-1H-pyrazol-1-yl)pyrimidin-5-yl)-1-(2-(methylsulfonyl)ethyl)-2-oxo-1,2-dihydropyridine-3-carboxylic acid] | 100
25 | Cc1cc(C(F)(F)F)nn1-c1nc(Nc2ccc(F)c(Cl)c2)ncc1-c1c[nH]c(=O)c(C(=O)O)c1 [Example 1094, 5-(2-(3-Chloro-4-fluorophenylamino)-4-(5-methyl-3-(trifluoromethyl)-1H-pyrazol-1-yl)pyrimidin-5-yl)-2-oxo-1,2-dihydropyridine-3-carboxylic acid] | 99
